Data: ChEMBL document CHEMBL2440098, “Binding mode characterization of 6α- and 6β-N-heterocyclic substituted naltrexamine derivatives via docking in opioid receptor crystal structures and site-directed mutagenesis studies: application of the 'message-address' concept in development of mu opioid receptor selective antagonists” (Bioorg Med Chem, 2013)
pIC50, pKi: −log10 of the molar value.

Experiments:
[1] = biological target: T1, Mu-type opioid receptor (Homo sapiens, UniProt P35372)
[2] = biological target: T1, Mu-type opioid receptor; experiment: Binding affinity to wild type MOR (unknown origin) expressed in CHO cells after 15 mins by Ca2+ mobilization assay; format: cell-based
[3] = Binding affinity to MOR Y210A mutant (unknown origin) expressed in CHO cells after 15 mins by Ca2+ mobilization assay; format: cell-based, Homo sapiens

T1 sequence (P35372 whole entry): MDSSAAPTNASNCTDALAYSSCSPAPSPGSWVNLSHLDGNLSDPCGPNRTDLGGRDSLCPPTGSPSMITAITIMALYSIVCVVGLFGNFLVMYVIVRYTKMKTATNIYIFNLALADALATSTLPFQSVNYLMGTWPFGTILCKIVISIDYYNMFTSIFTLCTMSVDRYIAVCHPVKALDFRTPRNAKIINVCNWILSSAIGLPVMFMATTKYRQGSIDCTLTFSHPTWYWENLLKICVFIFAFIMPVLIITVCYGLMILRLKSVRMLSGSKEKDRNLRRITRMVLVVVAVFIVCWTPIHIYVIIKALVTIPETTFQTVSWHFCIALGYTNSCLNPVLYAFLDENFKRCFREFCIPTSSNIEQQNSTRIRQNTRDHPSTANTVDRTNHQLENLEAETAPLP

## O=C(N[C@H]1CC[C@@]2(O)[C@H]3Cc4ccc(O)c5c4[C@@]2(CCN3CC2CC2)[C@H]1O5)c1cc2ccccc2cn1
[1]
  pIC50: 6.82
[2]
  pKi: 8.59
[3]
  pIC50: 8.48
  pKi: 8.80
